Reference: publication PMC4869678, “Synthesis and Evaluation of a 2,11‐Cembranoid‐Inspired Library” (Chemistry (Weinheim an Der Bergstrasse, Germany), 2016)
≈ marks a conversion by molar mass, not a printed value. Blank lines part the entries; values can stand above or below the compound they belong to.

Legend:
[1] = PAMPA (parallel artificial membrane permeability assay); format: in vitro ADME
Source text: (§1) Due to a lack of UV chromophore and/or poor mass spectrometry ionisation, nephelometry46 was used to measure the solubility. PAMPA (parallel artificial membrane permeability assay)47 was used to assess the permeability.

[2] = Aqueous solubility by nephelometry; format: physicochemical; conditions: aqueous medium (not further specified), kinetic from dmso stock, measured by nephelometry
Source text: as §1

[3] = system: Caco‐2 human intestinal cancer cells; assay: Permeability across a Caco-2 monolayer; format: in vitro ADME
[4] = Permeability across a Caco-2 monolayer; format: in vitro ADME, human; conditions: human, read-out: permeability across a monolayer of Caco‐2 cells
[5] = system: PC3 cells; assay: SRB antiproliferative concentration-response assay; format: cell-based; conditions: Homo sapiens, PC-3, in vitro 96 h assay, full dose response curve
Protocol: (§2) Figure 6 a) Concentration–response curve for the antiproliferative effect of compound 28 on PC3 cells in vitro 96 h assay. b) Compound 28 inhibiting the migration properties of PC3 TEM cancer cells. FCS=fetal calf serum.
Cells were seeded in 100μl medium into 96-well plates. After 36 hours, serial doubling dilutions of drug (or vehicle) were added to give the required dose range in sextuplicate across the plate. Cells were incubated for a further 96 hours. The medium was then removed and cells were fixed by adding 50μl of 10% (w/v) trichloroacetic acid (TCA) for one hour at room temperature. The plates were gently washed by immersion in tap water three times then air dried. 50μl of 0.4% (w/v) SRB in 1% (v/v) acetic acid was added to each well for one hour. […] Absorbance at 570nm was measured using a SPECTRAmax 340PC plate reader.
(§3) Cells in standard tissue culture flasks were fluorescently labelled by incubation with 1umol/L CellTracker Green 5-chloromethylfluorescein diacetate (Invitrogen, Paisley) concomitant with serum starvation for two hours. Following trypsinisation cells were counted and added to the upper wells of 8um pore FluoroblokTM membrane inserts in 24-well companion plates (BD Biosciences, Franklin Lakes, NJ). […] Cells which successfully migrated to the lower surface of the filter were visualised using an inverted fluorescence

[6] = system: PC3 human prostate cancer cell line; assay: NCI panel growth inhibition, PC3 line; format: cell-based; conditions: PC3, single concentration of 10 µM, 48 h, NCI screen, read-out: inhibition of proliferation
Protocol: A selection of fifteen of the cembranoid‐inspired compounds was screened against a panel of 60 cancer cell lines at the National Cancer Institute screening panel (see the Supporting Information).49 This cell‐based assay aims to discover compounds with a strong cytostatic or cytotoxic growth inhibition over 48 h. Unfortunately, only low levels (up to 20 %) of cell growth inhibition were seen when screened at a single concentration of 10 µM.

[7] = system: PC3 TEM cancer cells; assay: Migration assay (Fluoroblok membrane, FCS chemotaxis); format: cell-based, human; conditions: 3‐ and 5‐fold GI50 concentrations, FCS-stimulated migration
Protocol: as §2
Whereas cembranoid natural products may not be inherently cytotoxic, an appreciable number do display an ability to inhibit the migratory and invasive properties of cancer cells.50 The effect of compound 28 on a PC3‐based migratory assay was therefore determined.
Cells were seeded in 100μl medium into 96-well plates. After 36 hours, serial doubling dilutions of drug (or vehicle) were added to give the required dose range in sextuplicate across the plate. Cells were incubated for a further 96 hours. […] Absorbance at 570nm was measured using a SPECTRAmax 340PC plate reader.
as §3

[8] = system: cancer cells; set-up: method as in PMID 20420415; conditions: 50 µM; cited from earlier work
[9] = system: PC3 cells; conditions: 50 µM; cited from earlier work
[10] = system: L1210 mouse lymphocytic leukemia cells; set-up: method as in earlier work; conditions: in vitro; cited from earlier work

Structure (SMILES): C=CCC1OC(COC(=O)C=CC)C2CC=CCC12 (stereo not drawn) [Compound 15]
permeability (Pe) [1]: 25 ×10⁻⁶ cm/s | solubility [2]: 500 µM (≈ 131 µg/mL)

Structure (SMILES): O=C1CCC/C=C/C[C@@H]2O[C@H](CO1)[C@H]1CCCC[C@H]12 [Compound 28]
permeability (Pe) [1]: 52 ×10⁻⁶ cm/s | solubility [2]: 550 µM (≈ 145 µg/mL) | transporter efflux [3]: no evidence of transporter efflux | Papp [4]: 16 ×10⁻⁶ cm/s | GI50 [5]: 63 µM | inhibition at 10 µM [6]: 17% | effect on cell migration [7]: reduction to near basal levels of migration

Structure (SMILES): C=C1CC[C@H](C(C)C)[C@@H]2[C@H]1[C@H]1C[C@](C)(O)[C@@H](O)CC[C@@](C)(O)[C@@H]2O1 [sclerophytin A]
inhibition of migration [8]: 85% | effect on proliferation [9]: no effect on proliferation | IC50 [10]: 3 nM

The remaining lines, values ahead:

permeability (Pe) [1]: > 150 ×10⁻⁶ cm/s | solubility [2]: 550 µM (≈ 139 µg/mL)
Structure (SMILES): CC1(C)CCC(=O)OCC2OC1C1CCCCC21 (stereo not drawn) [Compound 65]

solubility [2]: 500 µM (≈ 111 µg/mL)
Structure (SMILES): OC1CCC=CCC2OC1C1CCCCC21 (stereo not drawn) [Compound 76]
